PubChem BioAssay AID2060904 (Molecular Pharmacology Branch, DTP, NCI, 2025)

System: 349418-098-R-PDC complex spheroid viability
Test: Anticancer human tumor 349418-098-R-PDC patient-derived lung adenocarcinoma cell line growth inhibition [RAS]
Conditions: for IC50: curve of first compound; for viability, T/C: stronger effect = lower value; active means viability on the fitted dose curve at most 10% of control; inactive means the rest
Description: RAS pathway inhibitors in Combinations in Complex Spheroids
A high-throughput screen of multi-cell type tumor spheroids was designed to identify active combinations of RAS pathway inhibitors and targeted small molecules. Complex spheroids include a stromal component modeled by human endothelial cells (HUVEC) and fibroblasts modeled by human mesenchymal stem cells (MSCs). The concentration ranges selected for each drug and investigational agent were based upon clinically achievable concentrations if the clinical Cmax of the agent was known.
Compounds. The drugs and investigational agents: abemaciclib (NSC768073), cobimetinib (NSC768068), divarasib (GDC6063, NSC841802), docetaxel (NSC628503), GDC-1971 (RLY-1971, NSC841576), gemcitabine (NSC613327), inavolisib (NSC800729), ipatasertib (NSC767898), KB-0742 (NSC834161), MRTX-1133 (NSC836407), osimertinib (NSC779217), RMC-4630 (NSC839698), RMC-6236 (NSC851965), RMC-6291 (NSC852671), Ro-3306 (NSC812927), sapanisertib (NSC764658), SN-38 (NSC673596), staurosporine (NSC755774), SY5609 (NSC837396), and tovorafenib (DAY101, NSC766906), were obtained from the National Cancer Institute (NCI) Developmental Therapeutics Program Chemical Repository. The FDA-approved anticancer drug set is available from the NCI Developmental Therapeutics Program. […] The stock solutions were prepared in dimethyl sulfoxide (DMSO, Sigma-Aldrich, St. Louis, MO, cat. D2650) at 800-fold the tested concentration and stored at -70 degrees C prior to their use. All drugs and investigational agents were tested over a range starting from a high concentration at or near the clinical Cmax and decreasing in half-log increments. If the clinical Cmax for an agent had not been determined, the highest concentration tested was 10 microM.
Cell Culture. All cells were maintained in an incubator at 37 degrees C and 5% CO2 with 95% humidity. The PDC lines were cultured according to standard operating procedures established by the NCI PDMR. All PDCs were thawed and cultured in Matrigel-coated flasks prepared with a working solution of 1X Ham's F-12 nutrient mix, without supplementation (Invitrogen, Waltham, MA, cat. 11765054), 100 U/mL penicillin-streptomycin (Invitrogen, cat. 15140122), and 2.5% Matrigel (Corning Inc., Corning, NY, cat. 354248) for the first three passages. The 362531-283-R-J2-PDC and 782815-120-R-J1-PDC lines were cultured in 6C/Colon 1B media, which includes advanced DMEM/F-12 (Thermo Fisher Scientific, cat. 12634028), 10 mM HEPES (Thermo Fisher Scientific, cat. 15630080), 1X GlutaMAX supplement (Thermo Fisher Scientific, cat. 35050061), 0.1 mg/mL primocin (InvivoGen, San Diego, CA, cat. ant-pm-2), 10% defined fetal bovine serum, heat inactivated (HyClone Laboratories Inc., Logan, UT, cat. SH30070.03HI), 50% L-WRN conditioned media (ATCC, cat. CRL-3276), 1.25 mM N-Acetyl-L-cysteine (Sigma-Aldrich, cat. A9165), 10 mM nicotinamide (Sigma-Aldrich, cat. N0636), 1X B-27 supplement (Thermo Fisher Scientific, cat. 17504044), 1X N-2 supplement (Thermo Fisher Scientific, cat. 17502048), 50 ng/mL human EGF (Thermo Fisher Scientific, cat. PHG0311), and 10 microM Y-27632 dihydrochloride (Tocris Bioscience, cat. 1254). The K12877-001-R-J1-PDC line was cultured in 6I media, which includes all 6C/Colon 1B media plus 10 ng/mL human FGF-10 (PeproTech, cat. 100-26), 1 ng/mL human FGF-2 (PeproTech, cat. 100-18B), 1 µM prostaglandin E2 (Tocris Bioscience, cat. 2296), […] hydrocortisone (Sigma-Aldrich, cat. H4001), and […] bovine insulin (Sigma-Aldrich, cat. I6634). The K86415-001-R-J1-PDC line was cultured in 6D media, which includes all 6C/Colon 1B media components minus the L-WRN conditioned media. The 485176-168-R4-J1-PDC was cultured in PANC media, which includes all 6C/Colon 1B media plus 100 ng/mL human FGF-10 (PeproTech, cat. 100-26), 500 nM SB-431542 (Selleckchem, cat. S1067), and 10 nM gastrin (Tocris Bioscience, cat. 3006). […]
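Further: spheroids exposed to compound for seven days before viability readout.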

Cc1nc(N2CCC3(CC2)COC(C)C3N)c(CO)nc1Sc1ccnc(N)c1Cl (configuration not stated) + C#Cc1c(F)ccc2cc(O)cc(-c3ncc4c(N5CC6CCC(C5)N6)nc(OCC56CCCN5CC(F)C6)nc4c3F)c12
> 10 µM: IC50 (second compound 0.0316 µM) | IC50 (second compound 0.1 µM) | IC50 (second compound 0.316 µM) | IC50 (second compound 1 µM) | IC50 (second compound 3.16 µM) | IC50 (second compound 10 µM)
inactive: viability, T/C (second compound 0.0316 µM, first compound 0.0316 µM) 102% | viability, T/C (second compound 0.0316 µM, first compound 0.1 µM) 108% | viability, T/C (second compound 0.0316 µM, first compound 0.316 µM) 105% | viability, T/C (second compound 0.0316 µM, first compound 1 µM) 63.1% | viability, T/C (second compound 0.0316 µM, first compound 3.16 µM) 86% | viability, T/C (second compound 0.0316 µM, first compound 10 µM) 71.2% | viability, T/C (second compound 0.1 µM, first compound 0.0316 µM) 112% | viability, T/C (second compound 0.1 µM, first compound 0.1 µM) 90.8% | viability, T/C (second compound 0.1 µM, first compound 0.316 µM) 98.2% | viability, T/C (second compound 0.1 µM, first compound 1 µM) 88.8% | viability, T/C (second compound 0.1 µM, first compound 3.16 µM) 108% | viability, T/C (second compound 0.1 µM, first compound 10 µM) 86% | viability, T/C (second compound 0.316 µM, first compound 0.0316 µM) 94.3% | viability, T/C (second compound 0.316 µM, first compound 0.1 µM) 88% | viability, T/C (second compound 0.316 µM, first compound 0.316 µM) 101% | viability, T/C (second compound 0.316 µM, first compound 1 µM) 104% | viability, T/C (second compound 0.316 µM, first compound 3.16 µM) 104% | viability, T/C (second compound 0.316 µM, first compound 10 µM) 67.3% | viability, T/C (second compound 1 µM, first compound 0.0316 µM) 89.4% | viability, T/C (second compound 1 µM, first compound 0.1 µM) 94.6% | viability, T/C (second compound 1 µM, first compound 0.316 µM) 87% | viability, T/C (second compound 1 µM, first compound 1 µM) 83.2% | viability, T/C (second compound 1 µM, first compound 3.16 µM) 111% | viability, T/C (second compound 1 µM, first compound 10 µM) 71.9% | viability, T/C (second compound 3.16 µM, first compound 0.0316 µM) 59.6% | viability, T/C (second compound 3.16 µM, first compound 0.1 µM) 108% | viability, T/C (second compound 3.16 µM, first compound 0.316 µM) 101% | viability, T/C (second compound 3.16 µM, first compound 1 µM) 62.2% | viability, T/C (second compound 3.16 µM, first compound 3.16 µM) 114% | viability, T/C (second compound 3.16 µM, first compound 10 µM) 80.3% | viability, T/C (second compound 10 µM, first compound 0.0316 µM) 75.4% | viability, T/C (second compound 10 µM, first compound 0.1 µM) 43.9% | viability, T/C (second compound 10 µM, first compound 0.316 µM) 70.3% | viability, T/C (second compound 10 µM, first compound 1 µM) 74.1% | viability, T/C (second compound 10 µM, first compound 3.16 µM) 73% | viability, T/C (second compound 10 µM, first compound 10 µM) 77%
